According to PubChem BioAssay (NCI):
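Interpolation was linear, between the two tested concentrations surrounding the appropriate level; five concentrations were tested over 48 hours in 96-well plates. TGI: total growth inhibition.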

Columns and labels:
Experiment in all cases: growth of human tumour cells (NCI), 48 h
[1] = tested on: 786-0 renal
[2] = tested on: A498 renal
[3] = tested on: A549 NSCLC
[4] = tested on: ACHN renal
[5] = tested on: BT-549 breast
[6] = tested on: CAKI-1 renal
[7] = tested on: CCRF-CEM leukemia
[8] = tested on: DU-145 prostate
[9] = tested on: EKVX NSCLC
[10] = tested on: HCC-2998 colon
[11] = tested on: HCT-116 colon
[12] = tested on: HCT-15 colon
[13] = tested on: HL-60(TB) leukemia
[14] = tested on: HOP-62 NSCLC
[15] = tested on: HOP-92 NSCLC
[16] = tested on: HS 578T breast
[17] = tested on: HT29 colon
[18] = tested on: IGROV1 ovarian
[19] = tested on: K-562 leukemia
[20] = tested on: KM12 colon
[21] = tested on: LOX IMVI melanoma
[22] = tested on: M14 melanoma
[23] = tested on: MALME-3M melanoma
[24] = tested on: MCF7 breast
[25] = tested on: MDA-MB-231 breast
[26] = tested on: MDA-MB-435
[27] = tested on: MDA-N
[28] = tested on: MOLT-4 leukemia
[29] = tested on: NCI-H226 lung
[30] = tested on: NCI-H23 lung
[31] = tested on: NCI-H460 lung
[32] = tested on: NCI-H522 lung
[33] = tested on: NCI/ADR-RES ovarian
[34] = tested on: OVCAR-3 ovarian
[35] = tested on: OVCAR-4 ovarian
[36] = tested on: OVCAR-5 ovarian
[37] = tested on: OVCAR-8 ovarian
[38] = tested on: PC-3 prostate
[39] = tested on: RPMI-8226 leukemia
[40] = tested on: RXF 393 renal
[41] = tested on: SF-268 CNS
[42] = tested on: SF-295 CNS
[43] = tested on: SF-539 CNS
[44] = tested on: SK-MEL-28 melanoma
[45] = tested on: SK-MEL-5 melanoma
[46] = tested on: SN12C renal
[47] = tested on: SNB-19 CNS
[48] = tested on: SNB-75 CNS
[49] = tested on: SR leukemia
[50] = tested on: SW-620 colon
[51] = tested on: T-47D breast
[52] = tested on: TK-10 renal
[53] = tested on: U251 CNS
[54] = tested on: UACC-257 melanoma
[55] = tested on: UACC-62 melanoma
[56] = tested on: UO-31 renal

Measured: TGI

O=C1CCCCN1C(=O)c1ccc([N+](=O)[O-])cc1
> 100 µM: [1] | [2] | [3] | [4] | [5] | [6] | [7] | [8] | [9] | [10] | [11] | [12] | [13] | [14] | [15] | [16] | [17] | [18] | [19] | [20] | [21] | [22] | [23] | [24] | [25] | [26] | [27] | [28] | [29] | [30] | [31] | [32] | [33] | [34] | [35] | [36] | [37] | [38] | [39] | [40] | [41] | [42] | [43] | [44] | [45] | [46] | [47] | [48] | [49] | [50] | [51] | [52] | [53] | [54] | [55] | [56]
